US6989396B2, “Tropane alkaloid multidrug resistance inhibitors from Erythroxylum pervillei and use of the same” (The Board of Trustees of the University of Illinois, priority 2001, dated 2006)
In brackets after ≈: the same amount, converted by molar mass. Several values for one entry are separate records, joined by “and”; a condition that tells them apart may be missing. Equal entries are not always repeated.

Assays:
[1] = system: SW626, human ovarian adenocarcinoma; test: In vitro cytotoxicity, human tumor panel: SW626; format: cell-based; settings: SW626, read-out: ED50 SW626
Method: (§1) Cytotoxicity assay. Compounds 1–9 were evaluated for cytotoxic activity against a panel of human cancer cell lines, including KB-V1 in the presence and absence of VLB, according to an established protocol (68).

[2] = system: KB, oral epidermoid carcinoma; test: In vitro cytotoxicity, human tumor panel: KB; format: cell-based; settings: Homo sapiens, read-out: ED50 KB
Method: as §1

Lu1, lung cancer = test: In vitro cytotoxicity, human tumor panel: Lu1; format: cell-based; settings: Homo sapiens, read-out: ED50 Lu1
Method: as §1

BC1, breast cancer = test: In vitro cytotoxicity, human tumor panel: BC1; format: cell-based; settings: Homo sapiens, read-out: ED50 BCI
Method: as §1

KB-V1, drug resistant KB = test: In vitro cytotoxicity, human tumor panel: KB-V1 with or without vinblastine; format: cell-based; settings: for IC50: Homo sapiens, KB-V1, drug-resistant KB assessed in the absence of vinblastine, read-out: ED50 KB-V1−; for ED50 KB-V1+: drug resistant KB assessed in presence of vinblastine (1 μg/mL)
Method: as §1

CAKI-1, renal = test: In vitro multidrug resistance modulation (DINIB synergy): CAKI-1; format: cell-based, human; settings: increase of cytotoxicity of DINIB 1 × 10^−4 M; modulator μg/mL: verapamil 12.5, cyclosporin A 6.3, pervilleine B 12.5, C 3.1, D 50.0, F 25.0; <25 insignificant, >100 strong synergy
From the text: (§2) Alkaloids 5–7 and 9 were further evaluated for their efficacy as potential modulators of P-glycoprotein. This assay assessed the ability of these test compounds to increase the cytotoxicity of an agent of the MDR phenotype {4,9-dihydro-3-iso-butyl-2-methyl-1-(p-nitrophenacyl)-4,9-dioxo-1H-naphth[2-3-d]imidazolium bromide (DINIB)}, compared with an agent not of the MDR phenotype (5-flurouracil), used as a negative control (73, 74).
(§3) In vitro multidrug resistance assay.

[3] = system: LNCaP, hormone-dependent prostate cancer; test: In vitro cytotoxicity, human tumor panel: LNCaP; format: cell-based; settings: Homo sapiens, LNCaP, read-out: ED50 LNCaP
Method: as §1

UO-31, renal = test: In vitro multidrug resistance modulation (DINIB synergy): UO-31; format: cell-based, human; settings: increase of cytotoxicity of DINIB 1 × 10^−4 M; modulator μg/mL: verapamil 12.5, cyclosporin A 6.3, pervilleine B 12.5, C 3.1, D 50.0, F 25.0; <25 insignificant, >100 strong synergy
From the text: as §2, §3

Col2, colon cancer = test: In vitro cytotoxicity, human tumor panel: Col2; format: cell-based; settings: Homo sapiens, read-out: ED50 Col2
Method: as §1

HCT-15, colon = test: In vitro multidrug resistance modulation (DINIB synergy): HCT-15; format: cell-based, human; settings: increase of cytotoxicity of DINIB 1 × 10^−4 M; modulator μg/mL: verapamil 12.5, cyclosporin A 6.3, pervilleine B 12.5, C 3.1, D 50.0, F 25.0; <25 insignificant, >100 strong synergy
From the text: as §2, §3

LOX IMVI, melanoma = test: In vitro multidrug resistance modulation (DINIB synergy): LOX IMVI; format: cell-based, human; settings: increase of cytotoxicity of DINIB 1 × 10^−4 M; modulator μg/mL: verapamil 12.5, cyclosporin A 6.3, pervilleine B 12.5, C 3.1, D 50.0, F 25.0; <25 insignificant, >100 strong synergy
From the text: as §2, §3

CEM/VLB100 cells = test: MDR reversal in drug-resistant human leukemia CEM/VLB100 cells; format: cell-based; settings: Homo sapiens; CEM/VLB100 cells; read-out: IC50 value of the cytotoxic drug in the absence of modulator
Method: Cytotoxic potential. The cytotoxic potential of test substances with KB-3, KB-V1 and KB-8-5 cells was determined as described previously (24). Briefly, various concentrations of test compounds (dissolved in 10 μl of 10% DMSO) were transferred to 96-well plates, and 190 μl aliquots of cell suspensions (5×10^4 cells/ml) were added to each well. The plates then were incubated for 72 hours at 37° C. (100% humidity with a 5% CO2 atmosphere in air), and 100 μl of cold 20% aqueous trichloroacetic acid were added to the growth medium in each well to fix the cells. The cultures were incubated at 4° C. for 30 minutes, washed, air-dried, stained with sulforhodamine B solution, and washed with 1% acetic acid. […] In each case, a zero-day control was performed by adding an equivalent number of cells to several wells and incubating at 37° C. for 30 minutes, and processing as described above. Optical density values obtained with the zero-day control were subtracted, and cell survival, relative to control (solvent-treated) cultures, was calculated. The cytotoxic potential of the compounds with CEM and CEM/VLB100 cells was determined as described by Beck et al. (30). Cells were grown in 24-well plates at a density of 5–6×10^5 cells/ml. At 48 hours, the cell number was determined using a Coulter Counter, with a channelizer to distinguish cells from debris.

KB-V1 cells [4] = test: In vivo hollow fiber test: KB-V1; set-up: species or system NCr nu/nu mice
Method: (§4) In vivo hollow fiber test. […] Confluent monolayers of KB-3, KB-V1 or KB-8-5 cells were harvested, collected by centrifugation and resuspended in conditioned medium at a concentration of 7.5×10^5 cells/ml.
(§5) Test compounds were administrated once daily by intraperitoneal injection from day 3–6 after implantation. Body weights were measure daily.
(§6) After incubating at 37° C. for 4 hours, the culture medium was aspirated and the samples were washed twice with normal saline containing 2.5% protamine sulfate solution by overnight incubation at 4° C. […] The formazan was extracted from each sample with DMSO (250 μl/well) for 4 hours at room temperature on a rotation platform.

KB-3 cells = test: Growth inhibitory potential (sulforhodamine B cell survival assay): KB-3; format: cell-based; settings: Homo sapiens, KB3; 72 hours; read-out: IC50 KB-3
Method: One part of a natural product drug discovery program involves monitoring the potential of plant extracts to reverse multiple drug resistance. […] To investigate the potential of plant extracts or compounds to reverse multidrug-resistance, KB-V1 cells are treated with different concentrations of plant extracts or compounds in the presence (1 μg/ml) or absence of vinblastine.
Cytotoxic potential. The cytotoxic potential of test substances with KB-3, KB-V1 and KB-8-5 cells was determined as described previously (24). Briefly, various concentrations of test compounds (dissolved in 10 μl of 10% DMSO) were transferred to 96-well plates, and 190 μl aliquots of cell suspensions (5×10^4 cells/ml) were added to each well. The plates then were incubated for 72 hours at 37° C. (100% humidity with a 5% CO2 atmosphere in air), and 100 μl of cold 20% aqueous trichloroacetic acid were added to the growth medium in each well to fix the cells. The cultures were incubated at 4° C. for 30 minutes, washed, air-dried, stained with sulforhodamine B solution, and washed with 1% acetic acid. Finally, 200 μl of 10 mM Tris base were added to each well and the optical densities were determined at 515 nm utilizing an ELISA plate reader. In each case, a zero-day control was performed by adding an equivalent number of cells to several wells and incubating at 37° C. for 30 minutes, and processing as described above. Optical density values obtained with the zero-day control were subtracted, and cell survival, relative to control (solvent-treated) cultures, was calculated. The cytotoxic potential of the compounds with CEM and CEM/VLB100 cells was determined as described by Beck et al. (30). Cells were grown in 24-well plates at a density of 5–6×10^5 cells/ml. At 48 hours, the cell number was determined using a Coulter Counter, with a channelizer to distinguish cells from debris.

KB-8-5 cells = test: In vivo hollow fiber test: KB-8-5; set-up: species or system NCr nu/nu mice; settings: vinblastine 100 μg/kg; reversing agents 0.136 mmol/kg
Method: as §4, §5, §6

KB-V1 cells [5] = settings: growth inhibitory effect of vinblastine; cited from earlier work

SMILES | IC50 [1] | IC50 [2] | IC50 (Lu1, lung cancer) | IC50 (BC1, breast cancer) | IC50 (KB-V1, drug resistant KB) | ED50 KB-V1+ (KB-V1, drug resistant KB) | synergy value at a 95% confidence level, CAKI-1 (CAKI-1, renal) | IC50 [3] | melting point | synergy value at a 95% confidence level, UO-31 (UO-31, renal) | IC50 (Col2, colon cancer) | synergy value at a 95% confidence level, HCT-15 (HCT-15, colon) | synergy value at a 95% confidence level, LOX IMVI (LOX IMVI, melanoma) | IC50 (CEM/VLB100 cells) | growth inhibition, administered as single agents (KB-V1 cells [4]; KB-V1 or KB-8-5 cells in hollow fibers implanted into NCr nu/nu mice) | Observed inhibition from coadministration with vinblastine, KB-V1, i.p. site (KB-V1 cells [4]; vinblastine 250 μg/kg + reversing agent 0.136 mmol/kg, i.p. injection once daily days 3–6) | Growth inhibition, single agent, KB-V1, s.c. site (KB-V1 cells [4]; vinblastine 250 μg/kg, reversing agents 0.136 mmol/kg, i.p. injection once daily days 3–6) | IC50 (KB-3 cells) | Growth inhibition, single agent, KB-8-5, s.c. site (KB-8-5 cells) | resistance of KB-V1 cells relative to parental KB-3 cells (KB-V1 cells [5])
COc1cc(C=CC(=O)O[C@@H]2C[C@@H]3[C@@H](OC(=O)C=Cc4cc(OC)c(OC)c(OC)c4)[C@@H](O)[C@H](C2)N3C)cc(OC)c1OC [Compound 7, 3α,6β-di-(3,4,5-trimethoxycinnamoyloxy)-7β-hydroxytropane] | 6.5 µg/mL (≈ 10.6 µM) | 11 µg/mL (≈ 17.9 µM) | 15.1 µg/mL (≈ 24.6 µM) | 15 µg/mL (≈ 24.4 µM) | 9 µg/mL (≈ 14.7 µM) | 0.2 µg/mL | 387.9 | 14.1 µg/mL (≈ 23 µM) | 59 to 61 °C | 562.7 | 4.9 µg/mL (≈ 7.98 µM) | 758.3 | 13.2 | – | – | – | – | – | – | –
COc1cc(C=CC(=O)O[C@H]2C[C@@H]3C[C@H](OC(=O)Cc4ccccc4)C[C@H]2N3C)cc(OC)c1OC [Compound 9, 3α-phenylacetoxy-6β-(3,4,5-trimethoxycinnamoyloxy)-tropane] | > 20 µg/mL | > 20 µg/mL | > 20 µg/mL | > 20 µg/mL | > 20 µg/mL | 0.2 µg/mL | 342.1 | > 20 µg/mL | 59 to 61 °C | 364.4 | 4.9 µg/mL (≈ 9.89 µM) | 714.7 | 59.2 | – | – | – | – | – | – | –
CC[C@]1(O)C[C@@H]2CN(CCc3c([nH]c4ccccc34)[C@@](C(=O)OC)(c3cc4c(cc3OC)N(C)[C@H]3[C@@](O)(C(=O)OC)[C@H](OC(C)=O)[C@]5(CC)C=CCN6CC[C@]43[C@@H]65)C2)C1 [vinblastine, reference compound] | – | – | – | – | – | – | – | – | – | – | – | – | – | 5000 nM | not significantly inhibited | 60.3% | 3.8% and 0% | 40 nM | 2.3% | > 200 fold
